Entries after “also recorded” stand apart in the source; their conditions may differ. Values belong to the molecule of their own block, whether it stands above or below them.
Columns and labels:
[1] = system: GLUTag cells; assay: GLP-1 release from GLUTag cells; assay type: cell-based, Murine; conditions: equimolar concentrations, 2 hours
From the text: (§1) GPR119 is the most extensively studied of the GPCRs activated by bacterial N-acyl amides (FIG. 4). Mechanisms that link endogenous GPR119 agonists (OEA, 2-OG) to changes in host phenotype are well defined as a result of the exploration of GPR119 as a therapeutic target for the treatment of diabetes and obesity. In fact, synthetic small molecule GPR119 agonists are in clinical trials as treatment for both diseases (Ritter et al., 2016, J Med Chem 59:3579-92; Nunez et al., 2014, PLoS One 9:e92494; Ha et al., 2014, Arch Pharm Res 37:671-8; Katz et al., 2012, Diabetes Obes Metab 14:709-16). GPR119 agonists are thought to affect diverse metabolic functions, primarily glucose homeostasis but also gastric emptying and appetite, in vivo through GPR119-dependent hormone release from enteroendocrine cells (GLP-1, GIP, PYY) and pancreatic β-cells (insulin) (Flock et al., 2011, Endorinol 152:374-83; Overton et al., 2006, Cell Metab 3:167-75; Chu et al., 2007, Endocrinol 148:2601-9; Chu et al., 2008, Endocrinol 149:2038-47; Lauffer et al., 2009, Diabetes 58:1058-66; Serrano et al., 2011, Neuropharmacol 60:593-601). Murine enteroendocrine GLUTag cells have been used as a model system for measuring the ability of potential GPR119 agonists to induce GLP-1 release. […] To provide an orthogonal measurement of GPR119 activation by N-acyl serinols, HEK293 cells were stably transfected with a GPR119 expression construct.
Oleoyl ethanolamide and 2-oleoyl glycerol were purchased from Cayman Chemical Company and resuspended in DMSO to a concentration of 10 mM. N-oleoyl serinol was isolated and purified in the same manner as N-palmitoyl serinol described above and confirmed by ^1H NMR and HRMS. N-oleoyl serinol was resuspended at 10 mM concentration in DMSO. GLUTag cells were obtained from the Mangelsdorf Lab (University of Texas Southwestern) with permission from Daniel Drucker (Mount Sinai Hospital Toronto). […] Media was then collected, centrifuged at 500×g (4° C.) for 5 minutes and cell free supernatant was analyzed for GLP-1 level using the Active GLP-1 V2 kit (Mesoscale Discovery). […]

[2] = molecular target: S1PR1 (Homo sapiens, UniProt P21453); assay: β-arrestin GPCR screen, agonist mode, S1PR1; assay type: cell-based
Chain of S1PR1 (P21453 whole entry): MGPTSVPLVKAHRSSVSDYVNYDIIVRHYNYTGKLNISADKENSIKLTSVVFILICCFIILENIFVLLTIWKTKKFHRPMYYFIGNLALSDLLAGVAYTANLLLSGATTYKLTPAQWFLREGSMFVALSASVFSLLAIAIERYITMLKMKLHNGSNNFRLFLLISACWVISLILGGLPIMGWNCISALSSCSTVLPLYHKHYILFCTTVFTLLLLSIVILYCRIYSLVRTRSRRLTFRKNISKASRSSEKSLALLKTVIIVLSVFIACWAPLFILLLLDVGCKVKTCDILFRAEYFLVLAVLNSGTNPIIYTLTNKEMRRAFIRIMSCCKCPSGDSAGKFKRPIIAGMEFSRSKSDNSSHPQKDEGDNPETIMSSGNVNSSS
Experimental: (§2) Using β-arrestin cell-based assays at 10 uM ligand concentration, agonist and antagonist activity was assessed by DiscoveRx against 168 GPCRs with known ligands as well as 72 orphan GPCRs. […] Synthetic N-acyl amides were assayed in the same fashion.

[3] = molecular target: S1PR3 (Homo sapiens, UniProt Q99500); assay: β-arrestin GPCR screen, agonist mode, S1PR3; assay type: cell-based
Chain of S1PR3 (Q99500 whole entry): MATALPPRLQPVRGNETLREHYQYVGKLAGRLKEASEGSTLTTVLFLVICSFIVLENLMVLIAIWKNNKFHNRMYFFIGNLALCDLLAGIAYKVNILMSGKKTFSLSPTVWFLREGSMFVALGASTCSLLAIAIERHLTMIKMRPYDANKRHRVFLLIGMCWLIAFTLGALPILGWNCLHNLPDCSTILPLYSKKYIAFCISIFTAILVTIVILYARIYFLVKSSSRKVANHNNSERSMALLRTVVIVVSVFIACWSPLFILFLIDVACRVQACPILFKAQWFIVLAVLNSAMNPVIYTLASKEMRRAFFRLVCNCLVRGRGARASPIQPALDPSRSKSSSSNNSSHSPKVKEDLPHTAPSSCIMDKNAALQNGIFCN
Experimental: as §2

[4] = molecular target: T1, sphingosine-1-phosphate receptor 4 (S1PR4) (Homo sapiens, UniProt O95977); assay: β-arrestin cell-based GPCR assay (DiscoveRx), agonist mode, S1PR4; conditions: for agonist activity at / interaction with S1PR4: GPCR screen
T1 sequence (O95977 1-384): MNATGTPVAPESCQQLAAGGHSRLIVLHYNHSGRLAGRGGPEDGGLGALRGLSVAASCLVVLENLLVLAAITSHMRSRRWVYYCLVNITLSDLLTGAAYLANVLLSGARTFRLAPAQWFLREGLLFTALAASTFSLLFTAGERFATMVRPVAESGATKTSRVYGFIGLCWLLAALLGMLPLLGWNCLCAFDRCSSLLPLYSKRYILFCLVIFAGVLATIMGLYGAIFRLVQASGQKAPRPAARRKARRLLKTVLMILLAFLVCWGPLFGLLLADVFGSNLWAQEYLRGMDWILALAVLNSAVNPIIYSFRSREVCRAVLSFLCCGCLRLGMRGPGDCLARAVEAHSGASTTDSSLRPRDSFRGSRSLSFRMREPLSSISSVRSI
Experimental: The major N-acyl amide analog isolated from each family was assayed for agonist and antagonist activity against a panel of 240 human GPCRs (FIG. 3 and FIG. 8).
as §2

[5] = molecular target: S1PR2 (Homo sapiens, UniProt O95136); assay: β-arrestin GPCR screen, agonist mode, S1PR2; assay type: cell-based
Chain of S1PR2 (O95136 whole entry): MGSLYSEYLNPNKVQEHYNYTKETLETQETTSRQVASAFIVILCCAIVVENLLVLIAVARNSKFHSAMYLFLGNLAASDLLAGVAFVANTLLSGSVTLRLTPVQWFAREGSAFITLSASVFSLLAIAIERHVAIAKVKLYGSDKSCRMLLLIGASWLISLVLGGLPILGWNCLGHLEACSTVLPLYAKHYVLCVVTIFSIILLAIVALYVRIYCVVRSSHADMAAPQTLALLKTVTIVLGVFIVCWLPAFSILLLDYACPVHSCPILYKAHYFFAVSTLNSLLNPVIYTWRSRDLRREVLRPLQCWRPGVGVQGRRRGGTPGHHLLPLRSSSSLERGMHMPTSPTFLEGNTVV
Experimental: as §2

[6] = molecular target: T2, G2A (Homo sapiens, UniProt Q9UNW8); assay: β-arrestin cell-based GPCR assay (DiscoveRx), agonist mode, orphan receptor G2A; conditions: for activation of G2A: GPCR screen
T2 sequence (Q9UNW8 1-380): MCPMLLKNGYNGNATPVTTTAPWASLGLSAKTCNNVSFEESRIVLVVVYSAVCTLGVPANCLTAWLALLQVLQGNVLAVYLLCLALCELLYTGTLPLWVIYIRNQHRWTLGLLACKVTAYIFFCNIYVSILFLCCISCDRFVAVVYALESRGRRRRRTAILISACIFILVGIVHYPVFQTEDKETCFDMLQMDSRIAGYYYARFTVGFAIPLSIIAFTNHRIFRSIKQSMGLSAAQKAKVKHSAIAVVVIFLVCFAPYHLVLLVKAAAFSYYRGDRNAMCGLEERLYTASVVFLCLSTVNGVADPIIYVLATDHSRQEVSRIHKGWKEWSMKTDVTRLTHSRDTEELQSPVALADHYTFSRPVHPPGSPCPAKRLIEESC
Experimental: (§3) The major N-acyl amide analog isolated from each family was assayed for agonist and antagonist activity against a panel of 240 human GPCRs (FIG. 3 and FIG. 8). […] The maximal activation of GPR119 and S1PR4 by the bacterial N-acyl amides was similar to the endogenous ligand (GPR119 100%, S1PR4 80%). Interactions between the bacterial N-acyl amides and GPCRs were also specific (FIG. 3A and FIG. 3B).
(§4) For each of the 6 N-acyl amide families (1-6) the analogue produced at the highest level in the heterologous expression experiments was assayed for GPCR activity. In the case of family 4 the major lysine analogue (N-3-hydroxyoleoyl lysine) was screened. Using β-arrestin cell-based assays at 10 uM ligand concentration, agonist and antagonist activity was assessed by DiscoveRx against 168 GPCRs with known ligands as well as 72 orphan GPCRs. […] Synthetic N-acyl amides were assayed in the same fashion.

[7] = molecular target: PTGIR (Homo sapiens, UniProt P43119); assay: β-arrestin cell-based GPCR assay (DiscoveRx), antagonist mode, PTGIR
Chain of PTGIR (P43119 whole entry): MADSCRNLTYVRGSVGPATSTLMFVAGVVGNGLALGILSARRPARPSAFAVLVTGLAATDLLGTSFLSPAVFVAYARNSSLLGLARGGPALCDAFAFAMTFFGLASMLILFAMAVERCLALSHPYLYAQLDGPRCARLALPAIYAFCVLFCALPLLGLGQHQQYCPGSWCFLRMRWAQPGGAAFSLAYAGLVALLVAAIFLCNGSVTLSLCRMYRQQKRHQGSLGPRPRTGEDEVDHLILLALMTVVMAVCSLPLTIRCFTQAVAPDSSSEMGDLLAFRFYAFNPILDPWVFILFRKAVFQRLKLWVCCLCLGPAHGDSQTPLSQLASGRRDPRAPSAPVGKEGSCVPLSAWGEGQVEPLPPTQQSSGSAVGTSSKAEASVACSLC
Experimental: as §3, §4

[8] = molecular target: PTGER4 (Homo sapiens, UniProt P35408); assay: β-arrestin cell-based GPCR assay (DiscoveRx), antagonist mode, PTGER4
Chain of PTGER4 (P35408 whole entry): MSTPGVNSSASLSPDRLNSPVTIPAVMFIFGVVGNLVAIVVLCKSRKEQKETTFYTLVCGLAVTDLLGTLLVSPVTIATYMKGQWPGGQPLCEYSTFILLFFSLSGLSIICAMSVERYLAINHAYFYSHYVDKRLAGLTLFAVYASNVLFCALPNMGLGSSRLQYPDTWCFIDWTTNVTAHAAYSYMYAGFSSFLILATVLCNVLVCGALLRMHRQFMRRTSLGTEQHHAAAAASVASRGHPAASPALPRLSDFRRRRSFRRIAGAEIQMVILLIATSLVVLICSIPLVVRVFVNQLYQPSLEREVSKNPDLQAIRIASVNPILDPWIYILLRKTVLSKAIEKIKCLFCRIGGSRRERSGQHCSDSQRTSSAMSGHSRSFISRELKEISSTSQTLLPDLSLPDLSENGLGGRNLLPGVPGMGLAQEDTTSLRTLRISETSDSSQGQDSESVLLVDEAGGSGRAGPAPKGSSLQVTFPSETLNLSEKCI
Experimental: as §3, §4

[9] = molecular target: T3, GPR119 (Homo sapiens, UniProt Q8TDV5); assay: cAMP secondary assay in ACTOne HEK293 cells transfected with GPR119; assay type: cell-based; parameters: expressed in transfected cells; host or cells: ACTOne HEK293 cells; conditions: for cellular cAMP concentration: HEK293 cells stably transfected with GPR119 vs native cells
T3 sequence (Q8TDV5 1-335): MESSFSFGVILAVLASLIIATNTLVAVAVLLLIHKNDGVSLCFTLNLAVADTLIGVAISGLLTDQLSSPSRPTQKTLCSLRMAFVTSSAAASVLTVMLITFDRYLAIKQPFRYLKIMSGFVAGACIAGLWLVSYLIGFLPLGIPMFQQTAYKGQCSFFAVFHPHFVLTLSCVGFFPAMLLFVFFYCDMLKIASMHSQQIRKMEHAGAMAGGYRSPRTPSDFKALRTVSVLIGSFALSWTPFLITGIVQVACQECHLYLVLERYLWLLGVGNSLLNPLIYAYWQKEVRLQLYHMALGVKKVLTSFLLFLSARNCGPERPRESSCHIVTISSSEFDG
Experimental: FIG. 10 depicts a secondary assay of GPR119. ACTOne HEK293 cells (control) and ACTOne HEK293 cells transfected with GPR119 were exposed to equimolar concentrations of the endogenous GPR119 ligand oleoylethanolamide or the bacterial ligand N-oleoyl serinol. Relative fluorescent intensity was recorded for each ligand concentration compared to background signal. All data points were performed in quadruplicate and error bars represent SD around the mean. […] The DCEA [5-(N-Ethylcarboxamido)adenosine] control is presented to confirm cAMP response of the parental cell line.
as §1

[10] = molecular target: T3, GPR119; assay: β-arrestin cell-based GPCR assay (DiscoveRx), agonist mode, GPR119; conditions: for interaction with GPR119: GPCR screen and dose response, FIG. 8
Experimental: as §3, §4

[11] = mice; cited from earlier work

SMILES: CCCCCCCC/C=C\CCCCCCCC(=O)OC(CO)CO [Compound 2-OG, 2-oleoyl glycerol]
GLP-1 secretion [1]: induced GLP-1 secretion to the same magnitude

SMILES: CCCCCCCCCCCCCC(O)CC(=O)N[C@@H](CCCCN)C(=O)O (stereo partly shown) [N-3-hydroxypalmitoyl lysine]
agonist activity at / interaction with S1PR4 [4]: specific agonist of S1PR4; also recorded: interacts with S1PR4

SMILES: CCCCCCCCCCCCCC(O)CC(=O)NC(CCCN)C(=O)O (stereo not shown) [N-3-hydroxypalmitoyl ornithine, N-3-OH-palmitoyl ornithine]
activation of S1PR1 [2]: did not activate
activation of S1PR3 [3]: did not activate
agonist activity at / interaction with S1PR4 [4]: specific agonist of S1PR4; also recorded: interacts with S1PR4
Emax ([4]; relative to endogenous ligand, read-out: maximal activation of S1PR4 compared with the endogenous ligand): 80%
activation of S1PR2 [5]: did not activate

SMILES: CCCCCCCCCCCC(O)CC(=O)OC(CCCCCCC)CC(=O)N[C@@H](CCC(N)=O)C(=O)O (stereo partly shown) [N-acyloxyacyl glutamine, 3-[(3-OH-myristoyl)oxy]decanoyl glutamine]
antagonism of PTGIR ([7]; antagonist screen): specifically antagonized
IC50 ([7]; in the presence of endogenous ligand, read-out: IC50, antagonist activity against PTGIR): 15 µM
antagonism of PTGER4 ([8]; antagonist screen): antagonized
IC50 ([8]; in the presence of endogenous ligand, read-out: IC50, antagonist activity against PTGER4): 43 µM

SMILES: CCCCCCCCCCCCCC(=O)N[C@@H](C)C(=O)O [N-myristoyl alanine]
EC50 ([6]; β-arrestin assay, dose response, read-out: EC50, activation of G2A): 3 µM

SMILES: CCCCCCCCCCCCCCCC(=O)N[C@@H](C)C(=O)O [N-palmitoyl alanine]
activation of G2A [6]: activate G2A

SMILES: CCCCCCCCCCCCCCCC(=O)NC(CO)CO [N-palmitoyl serinol]
interaction with GPR119 [10]: interacts with GPR119
Emax ([10]; relative to endogenous ligand, read-out: maximal activation of GPR119 compared with the endogenous ligand): 100%

SMILES: CCCCCCCC/C=C\CCCCCCCC(=O)NCCO [OEA, oleoylethanolamide]
EC50 ([9]; HEK293 cells expressing GPR119, quadruplicate, read-out: EC50, cAMP response): 5.1 µM
cellular cAMP concentration [9]: increased cellular cAMP concentrations in a GPR119 dependent fashion
EC50 ([10]; β-arrestin assay, dose response in duplicate, read-out: EC50, activation of GPR119): 7 µM
blood glucose in OGTT after intravenous delivery [11]: fails to lower blood glucose
GLP-1 secretion [1]: induced GLP-1 secretion to the same magnitude

The next lines start with results.

activation of S1PR1 [2]: activates
activation of S1PR3 [3]: activates
agonist activity at / interaction with S1PR4 [4]: activates
EC50 ([4]; β-arrestin assay, dose response in duplicate, read-out: EC50, activation of S1PR4): 0.09 µM
activation of S1PR2 [5]: activates
SMILES: CCCCCCCCCCCCC/C=C/[C@@H](O)[C@@H](N)COP(=O)(O)O [Compound S1P, sphingosine-1-phosphate, reference compound]

activation of G2A [6]: activate G2A
SMILES: CCCCCCCCCCCCCC(O)CC(=O)NCC(=O)O (stereo not shown) [N-3-hydroxypalmitoyl glycine]

interaction with GPR119 [10]: interacts with GPR119
maximum GPR119 activation compared with OEA ([10]; β-arrestin assay, FIG. 5A): ~2 fold
SMILES: CCCCCCCC/C=C\CCCCCCCC(=O)NC(CO)CO [N-oleoyl serinol]
cellular cAMP concentration [9]: increased cellular cAMP concentrations in a GPR119 dependent fashion
GLP-1 secretion [1]: induced GLP-1 secretion to the same magnitude

activation of G2A [6]: activates G2A
SMILES: CCCCCCCCCCCCCCCC(=O)NCC(=O)O [N-palmitoyl glycine]

Source: patent US20200113950A1, “Human microbiota derived N-acyl amides for the treatment of human disease” (The Rockefeller University, priority 2017, published 2020)
